#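 All cell lines were grown in 96-well plates and treated with compound for 48 hours. TGI marks complete inhibition of growth.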
# Key:
# Experiment in all cases: NCI-60 cell line screen, 48 h
# A498 renal = system: A498 renal
# NCI-H522 lung = system: NCI-H522 lung
# OVCAR-4 ovarian = system: OVCAR-4 ovarian
# SF-268 CNS = system: SF-268 CNS
# SK-MEL-28 melanoma = system: SK-MEL-28 melanoma
# SK-OV-3 ovarian = system: SK-OV-3 ovarian
# SN12C renal = system: SN12C renal
# SNB-75 CNS = system: SNB-75 CNS
# U251 CNS = system: U251 CNS
# DLD-1 colon = system: DLD-1 colon
# DMS 114 small cell lung = system: DMS 114 small cell lung
# DMS 273 small cell lung = system: DMS 273 small cell lung
# HOP-18 NSCLC = system: HOP-18 NSCLC
# KM20L2 colon = system: KM20L2 colon
# LXFL 529 NSCLC = system: LXFL 529 NSCLC
# M19-MEL melanoma = system: M19-MEL melanoma
# XF 498 CNS = system: XF 498 CNS
Structure (SMILES),TGI (A498 renal),TGI (NCI-H522 lung),TGI (OVCAR-4 ovarian),TGI (SF-268 CNS),TGI (SK-MEL-28 melanoma),TGI (SK-OV-3 ovarian),TGI (SN12C renal),TGI (SNB-75 CNS),TGI (U251 CNS),TGI (DLD-1 colon),TGI (DMS 114 small cell lung),TGI (DMS 273 small cell lung),TGI (HOP-18 NSCLC),TGI (KM20L2 colon),TGI (LXFL 529 NSCLC),TGI (M19-MEL melanoma),TGI (XF 498 CNS)
CC(C)(C)OC(=O)NC1CC2(C=C(Br)C(=O)C(Br)=C2)OC1=O (centres undefined),47.4 µM,3.92 µM,24.1 µM,32.2 µM,37.9 µM,32.1 µM,18.5 µM,36.7 µM,31.7 µM,,,,,,,,
Cc1ccccc1OC(C)C(=O)NN1C(=O)CSC1c1ccc(Cl)cc1 (centres undefined),72.3 µM,> 29.4 µM,> 100 µM,> 67.4 µM,> 100 µM,> 92.5 µM,35.3 µM,> 100 µM,> 93.4 µM,,,,,,,,
NC(=O)N/N=C(/CC1C(=O)Oc2ccccc21)c1ccccc1O (centres undefined),> 100 µM,> 100 µM,> 100 µM,> 100 µM,> 100 µM,> 100 µM,> 100 µM,> 100 µM,> 100 µM,,,,,,,,
CC(NC(=O)NC(C)(C)C)NC(=O)C(N)CC(=O)O (centres undefined),> 100 µM,> 100 µM,> 100 µM,> 100 µM,> 100 µM,> 100 µM,> 100 µM,> 100 µM,> 100 µM,,,,,,,,
Nc1nc(Cl)c(N)c(NCC2(CO)CC2)n1,> 100 µM,> 100 µM,> 100 µM,> 100 µM,> 100 µM,> 100 µM,> 100 µM,> 100 µM,> 100 µM,,,,,,,,
O=C(O)CCS/C(=C\C(SCCC(=O)O)c1ccc(Cl)cc1)c1ccc(Cl)cc1 (centres undefined),39 µM,> 100 µM,> 100 µM,> 100 µM,> 100 µM,> 100 µM,> 100 µM,> 100 µM,> 100 µM,,,,,,,,
COc1c(/C=C/C(C)(C)O)cc(C2CC(=O)c3c(O)cc(O)cc3O2)cc1CC=C(C)C (centres undefined),16.8 µM,18.6 µM,24.6 µM,19.2 µM,42.5 µM,17.6 µM,14.3 µM,22.8 µM,14.4 µM,,,,,,,,
Cc1nc(C)c(N2CCN(S(=O)(=O)N(Cc3ccccc3)Cc3ccccc3)CC2)c(=O)[nH]1,> 75.7 µM,65.1 µM,> 100 µM,> 75 µM,> 100 µM,> 54.2 µM,> 100 µM,32.9 µM,20.4 µM,,,,,,,,
O=c1cc(CO)oc2c3c(cc(O)c12)OCC(COC1OC(CO)C(O)C(O)C1O)=CC3 (centres undefined),> 100 µM,> 100 µM,> 100 µM,> 100 µM,> 100 µM,> 100 µM,> 100 µM,> 100 µM,> 100 µM,> 100 µM,> 100 µM,> 100 µM,> 100 µM,> 100 µM,> 100 µM,> 100 µM,
c1cc2c(cc1NC1=NCCO1)OCO2,> 100 µM,> 100 µM,> 100 µM,> 100 µM,> 100 µM,> 100 µM,> 100 µM,> 100 µM,> 100 µM,,,,,,,,
CCOc1ccc2[nH]c3c(C)c4ccncc4c(C)c3c2c1,3.2 µM,2.77 µM,2.72 µM,2.71 µM,3.61 µM,16.4 µM,1.93 µM,3.1 µM,2.16 µM,1.96 µM,3.01 µM,1.64 µM,,2.56 µM,1.98 µM,3.1 µM,2.16 µM
Cn1c2ccccc2c2c3c(c4c5ccccc5n(C)c4c21)C(=O)NC3=O,> 44.2 µM,> 86.7 µM,28.6 µM,> 100 µM,> 100 µM,> 100 µM,> 100 µM,> 95.7 µM,> 51.5 µM,,,,,,,,
COC(=O)CCC1=C(CC(=O)OC)C(C)(OC)N=C1NC(=O)OCc1ccccc1 (centres undefined),> 100 µM,> 100 µM,> 100 µM,> 100 µM,> 100 µM,> 100 µM,> 100 µM,> 100 µM,> 100 µM,,,,,,,,
COc1ccc(C(=O)O[C@H]2[C@@H]3C=CO[C@@H](OC4OC(CO)C(O)C(O)C4O)[C@@H]3[C@@]3(CO)O[C@@H]23)cc1O (some centres undefined),> 100 µM,> 100 µM,> 100 µM,> 100 µM,> 100 µM,> 100 µM,> 100 µM,> 100 µM,> 100 µM,> 100 µM,> 100 µM,> 100 µM,,> 100 µM,> 100 µM,> 100 µM,> 100 µM
Cc1cc2/c(=C\c3ccc(N(C)C)cc3)c3ccccc3n2[n+]1C,9.33 µM,1.99 µM,10.3 µM,6.57 µM,3.19 µM,14.3 µM,1.65 µM,2.26 µM,1.78 µM,,,,,,,,
NC1=C(NC(=O)Cc2ccccc2F)C(=O)c2ccccc2C1=O,,> 100 µM,> 100 µM,> 100 µM,> 100 µM,,> 100 µM,62.6 µM,> 100 µM,52.9 µM,> 100 µM,> 100 µM,> 100 µM,> 100 µM,,24.5 µM,
[N-]=[N+]=NC1OC(=O)C(Cl)=C1N=P(c1ccccc1)(c1ccccc1)c1ccccc1 (centres undefined),> 10 µM,> 10 µM,> 10 µM,> 10 µM,> 10 µM,> 10 µM,> 10 µM,> 10 µM,> 10 µM,,,,,,,,
O=C(/C=C/c1cccc(Oc2ccccc2)c1)NCc1ccc(C(=O)NCc2ccccc2)cc1,> 100 µM,> 100 µM,> 100 µM,> 100 µM,> 100 µM,29.8 µM,> 100 µM,53.3 µM,> 100 µM,,,,,,,,
C/C(=N\N=C(\N)SB(F)F)c1ccc2ccccc2c1,> 100 µM,72 µM,> 100 µM,> 100 µM,> 100 µM,> 100 µM,> 100 µM,> 100 µM,> 100 µM,,,,,,,,
COc1ccc(-n2c(N)c(C#N)[nH]c2=O)cc1,> 10 µM,> 10 µM,> 10 µM,> 10 µM,> 10 µM,> 10 µM,> 10 µM,> 10 µM,> 10 µM,,,,,,,,
CC(C)(C)OC(=O)N(CCCCNC(=O)OCc1ccccc1)CCCNC(=O)OCc1ccccc1,> 100 µM,19.4 µM,> 100 µM,> 100 µM,> 100 µM,> 100 µM,> 100 µM,> 100 µM,> 100 µM,,,,,,,,
